Measured values from the supplement of paper PMC10307832.

Experiments:
Assay in all cases: relative viability (nuclei count vs DMSO), 5 days (fraction); higher = more cells survive
NCI-H1355 = system: NCI-H1355
Procedure, shortened: (§1)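 Lung cancer cell lines in 1536-well plates got either a single drug or a fixed anchor-drug dose together with five library-drug doses (not always all listed) in √10 steps, by pin tool, on the day after seeding. Nuclei were counted after 5 days, and relative viability is the treated-to-vehicle ratio of nuclei counts. Values are medians of duplicate plates.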

NCI-H2085 = system: NCI-H2085
Procedure, shortened: as §1

NCI-H1915 = system: NCI-H1915
Procedure, shortened: as §1

LC-2-ad = system: LC-2-ad
Procedure, shortened: as §1

NCI-H23 = system: NCI-H23
Procedure, shortened: as §1

NCI-H1651 = system: NCI-H1651
Procedure, shortened: as §1

NCI-H2126 = system: NCI-H2126
Procedure, shortened: as §1

A-427 = system: A-427
Procedure, shortened: as §1

COR-L23 = system: COR-L23
Procedure, shortened: as §1

SK-MES-1 = system: SK-MES-1
Procedure, shortened: as §1

NCI-H1993 = system: NCI-H1993
Procedure, shortened: as §1

HOP-62 = system: HOP-62
Procedure, shortened: as §1

COR-L 105 = system: COR-L 105
Procedure, shortened: as §1

NCI-H647 = system: NCI-H647
Procedure, shortened: as §1

NCI-H322M = system: NCI-H322M
Procedure, shortened: as §1

LCLC-103H = system: LCLC-103H
Procedure, shortened: as §1

HCC-44 = system: HCC-44
Procedure, shortened: as §1

NCI-H2087 = system: NCI-H2087
Procedure, shortened: as §1

NCI-H520 = system: NCI-H520
Procedure, shortened: as §1

201T = system: 201T
Procedure, shortened: as §1

H3255 = system: H3255
Procedure, shortened: as §1

RERF-LC-KJ = system: RERF-LC-KJ
Procedure, shortened: as §1

NCI-H441 = system: NCI-H441
Procedure, shortened: as §1

With Nc1cccc2c1CN(C1CCC(=O)NC1=O)C2=O (stereo unspecified) [Lenalidomide] + C[C@]1(O)C[C@@H](c2nc(-c3ccc4ccc(-c5ccccc5)nc4c3)c3c(N)nccn32)C1 [Linsitinib] (partner 1 µM) the relative viability (NCI-H1355; first compound 0.253 µM) was 0.827, the relative viability (NCI-H1355; first compound 0.8 µM) was 0.748 and the relative viability (NCI-H1355; first compound 2.53 µM) was 0.864. It also gave a relative viability (NCI-H1355; first compound 8 µM) of 0.53, a relative viability (NCI-H2085; first compound 0.253 µM) of 0.876 and a relative viability (NCI-H2085; first compound 0.8 µM) of 0.877. For the same molecule, the relative viability (NCI-H2085; first compound 2.53 µM) was 1.03, the relative viability (NCI-H2085; first compound 8 µM) was 0.933 and the relative viability (NCI-H1915; first compound 0.253 µM) was 1.08. For the same molecule, the relative viability (NCI-H1915; first compound 0.8 µM) was 1.12, the relative viability (NCI-H1915; first compound 2.53 µM) was 1.06 and the relative viability (NCI-H1915; first compound 8 µM) was 1.11. For the same molecule, the relative viability (LC-2-ad; first compound 0.253 µM) was 0.837, the relative viability (LC-2-ad; first compound 0.8 µM) was 0.926 and the relative viability (LC-2-ad; first compound 2.53 µM) was 0.862. It also gave a relative viability (LC-2-ad; first compound 8 µM) of 0.833, a relative viability (NCI-H23; first compound 0.253 µM) of 0.452 and a relative viability (NCI-H23; first compound 0.8 µM) of 0.493. The relative viability (NCI-H23; first compound 2.53 µM) was 0.688, the relative viability (NCI-H23; first compound 8 µM) was 0.45 and the relative viability (NCI-H1651; first compound 0.253 µM) was 0.995. It also gave a relative viability (NCI-H1651; first compound 0.8 µM) of 0.968, a relative viability (NCI-H1651; first compound 2.53 µM) of 1.18 and a relative viability (NCI-H1651; first compound 8 µM) of 0.973. It also gave a relative viability (NCI-H2126; first compound 0.253 µM) of 0.692, a relative viability (NCI-H2126; first compound 0.8 µM) of 0.681 and a relative viability (NCI-H2126; first compound 2.53 µM) of 0.702. The relative viability (NCI-H2126; first compound 8 µM) was 0.486, the relative viability (A-427; first compound 0.253 µM) was 1.12 and the relative viability (A-427; first compound 2.53 µM) was 1.11. The relative viability (A-427; first compound 8 µM) was 1.1, the relative viability (COR-L23; first compound 0.253 µM) was 0.991 and the relative viability (COR-L23; first compound 0.8 µM) was 1.12. The relative viability (COR-L23; first compound 2.53 µM) was 1.01, the relative viability (COR-L23; first compound 8 µM) was 0.906 and the relative viability (SK-MES-1; first compound 0.253 µM) was 1.05. It also gave a relative viability (SK-MES-1; first compound 0.8 µM) of 1.03, a relative viability (SK-MES-1; first compound 2.53 µM) of 1.13 and a relative viability (SK-MES-1; first compound 8 µM) of 0.979. It also gave a relative viability (NCI-H1993; first compound 0.253 µM) of 0.708, a relative viability (NCI-H1993; first compound 0.8 µM) of 0.706 and a relative viability (NCI-H1993; first compound 2.53 µM) of 0.73. For the same molecule, the relative viability (NCI-H1993; first compound 8 µM) was 0.708, the relative viability (HOP-62; first compound 0.253 µM) was 0.89 and the relative viability (HOP-62; first compound 0.8 µM) was 0.969. The relative viability (HOP-62; first compound 2.53 µM) was 0.837, the relative viability (HOP-62; first compound 8 µM) was 0.918 and the relative viability (COR-L 105; first compound 0.253 µM) was 0.839. It also gave a relative viability (COR-L 105; first compound 0.8 µM) of 0.774, a relative viability (COR-L 105; first compound 2.53 µM) of 0.738 and a relative viability (COR-L 105; first compound 8 µM) of 1.12. It also gave a relative viability (NCI-H647; first compound 0.253 µM) of 1.16, a relative viability (NCI-H647; first compound 0.8 µM) of 1.14 and a relative viability (NCI-H647; first compound 2.53 µM) of 1.32. For the same molecule, the relative viability (NCI-H647; first compound 8 µM) was 0.932, the relative viability (NCI-H322M; first compound 0.253 µM) was 0.912 and the relative viability (NCI-H322M; first compound 0.8 µM) was 1.06. For the same molecule, the relative viability (NCI-H322M; first compound 2.53 µM) was 0.856, the relative viability (NCI-H322M; first compound 8 µM) was 0.708 and the relative viability (LCLC-103H; first compound 0.253 µM) was 1.11. The relative viability (LCLC-103H; first compound 0.8 µM) was 1.09, the relative viability (LCLC-103H; first compound 2.53 µM) was 1.05 and the relative viability (LCLC-103H; first compound 8 µM) was 0.86. For the same molecule, the relative viability (HCC-44; first compound 0.253 µM) was 0.648, the relative viability (HCC-44; first compound 0.8 µM) was 0.537 and the relative viability (HCC-44; first compound 2.53 µM) was 0.738. It also gave a relative viability (HCC-44; first compound 8 µM) of 0.522, a relative viability (NCI-H2087; first compound 0.253 µM) of 0.98 and a relative viability (NCI-H2087; first compound 0.8 µM) of 0.919. The relative viability (NCI-H2087; first compound 2.53 µM) was 0.915, the relative viability (NCI-H2087; first compound 8 µM) was 1.09 and the relative viability (NCI-H520; first compound 0.253 µM) was 0.974. The relative viability (NCI-H520; first compound 0.8 µM) was 1.15, the relative viability (NCI-H520; first compound 2.53 µM) was 1.12 and the relative viability (NCI-H520; first compound 8 µM) was 0.96. It also gave a relative viability (201T; first compound 0.253 µM) of 1.08, a relative viability (201T; first compound 0.8 µM) of 1.18 and a relative viability (201T; first compound 2.53 µM) of 1.05. It also gave a relative viability (201T; first compound 8 µM) of 0.908, a relative viability (H3255; first compound 0.253 µM) of 0.996 and a relative viability (H3255; first compound 0.8 µM) of 0.957. It also gave a relative viability (H3255; first compound 2.53 µM) of 1.06, a relative viability (H3255; first compound 8 µM) of 0.871 and a relative viability (RERF-LC-KJ; first compound 0.253 µM) of 0.905. It also gave a relative viability (RERF-LC-KJ; first compound 0.8 µM) of 0.79, a relative viability (RERF-LC-KJ; first compound 2.53 µM) of 0.892 and a relative viability (RERF-LC-KJ; first compound 8 µM) of 0.943. For the same molecule, the relative viability (NCI-H441; first compound 0.253 µM) was 0.547, the relative viability (NCI-H441; first compound 0.8 µM) was 0.345 and the relative viability (NCI-H441; first compound 2.53 µM) was 0.692. For the same molecule, the relative viability (NCI-H441; first compound 8 µM) was 0.555.
